Literature values in patent publication US20090220426A1, “Biodegradable Inverted-Opal Structure, Method for Manufacturing and Using the Same, and Medical Implant Comprising the Biodegradable Inverted-Opal Structure” (KINKI UNIVERSITY, priority 2006, published 2009).

System: mouse

| SMILES | L.D.50 (oral mouse) |
| --- | --- |
| OCC(CO)(CO)CO [pentaerythritol] | 25,500 mg/kg |
| OCCCCCO [1,5-pentanediol] | 25,500 mg/kg |
